Assay results taken from ChEMBL document CHEMBL4507324 (2021).

Legend:
Conditions in all cases: Compound concentration 100.0 nM
[1] = biological target: Phosphatidylinositol 4,5-bisphosphate 3-kinase catalytic subunit gamma isoform (Homo sapiens) (UniProt P48736)
[2] = biological target: Proto-oncogene tyrosine-protein kinase Src (Homo sapiens) (UniProt P12931)
[3] = tested on: Mast/stem cell growth factor receptor Kit (Homo sapiens), P10721 [D816H]
[4] = biological target: Peripheral plasma membrane protein CASK (Homo sapiens) (UniProt O14936)
[5] = biological target: Discoidin domain-containing receptor 2 (Homo sapiens) (UniProt Q16832)
[6] = tested on: Epidermal growth factor receptor (Homo sapiens), P00533 [G719S]
[7] = biological target: Phosphatidylinositol 4-kinase beta (Homo sapiens) (UniProt Q9UBF8)
[8] = biological target: Tyrosine-protein kinase SYK (Homo sapiens) (UniProt P43405)
[9] = biological target: Megakaryocyte-associated tyrosine-protein kinase (Homo sapiens) (UniProt P42679)
[10] = biological target: Serine/threonine-protein kinase ULK2 (Homo sapiens) (UniProt Q8IYT8)
[11] = biological target: High affinity nerve growth factor receptor (Homo sapiens) (UniProt P04629)
[12] = biological target: Uncharacterized serine/threonine-protein kinase SBK3 (Homo sapiens) (UniProt P0C264)
[13] = biological target: Dual serine/threonine and tyrosine protein kinase (Homo sapiens) (UniProt Q6XUX3)
[14] = tested on: Leucine-rich repeat serine/threonine-protein kinase 2 (Homo sapiens), Q5S007 [G2019S]
[15] = biological target: Fibroblast growth factor receptor 1 (Homo sapiens) (UniProt P11362)
[16] = biological target: Ephrin type-A receptor 5 (Homo sapiens) (UniProt P54756)
[17] = biological target: Cyclin-dependent kinase 11A (Homo sapiens) (UniProt Q9UQ88)
[18] = biological target: Serine/threonine-protein kinase PRP4 homolog (Homo sapiens) (UniProt Q13523)
[19] = biological target: Serine/threonine-protein kinase PAK 2 (Homo sapiens) (UniProt Q13177)
[20] = biological target: Interleukin-1 receptor-associated kinase 4 (Homo sapiens) (UniProt Q9NWZ3)
[21] = biological target: MAP kinase-interacting serine/threonine-protein kinase 2 (Homo sapiens) (UniProt Q9HBH9)
[22] = biological target: SRSF protein kinase 3 (Homo sapiens) (UniProt Q9UPE1)
[23] = tested on: Phosphatidylinositol 4,5-bisphosphate 3-kinase catalytic subunit alpha isoform (Homo sapiens), P42336 [I800L]
[24] = biological target: Homeodomain-interacting protein kinase 1 (Homo sapiens) (UniProt Q86Z02)
[25] = biological target: Ephrin type-B receptor 3 (Homo sapiens) (UniProt P54753)
[26] = biological target: Serine/threonine-protein kinase LATS1 (Homo sapiens) (UniProt O95835)
[27] = biological target: Protein-tyrosine kinase 6 (Homo sapiens) (UniProt Q13882)
[28] = biological target: Receptor-interacting serine/threonine-protein kinase 2 (Homo sapiens) (UniProt O43353)
[29] = biological target: Phosphorylase b kinase gamma catalytic chain, skeletal muscle/heart isoform (Homo sapiens) (UniProt Q16816)
[30] = tested on: Tyrosine-protein kinase ABL1 (Homo sapiens), P00519 [H396P]
[31] = biological target: Casein kinase II subunit alpha' (Homo sapiens) (UniProt P19784)
[32] = biological target: Mitotic checkpoint serine/threonine-protein kinase BUB1 (Homo sapiens) (UniProt O43683)
[33] = biological target: Serine/threonine-protein kinase pim-1 (Homo sapiens) (UniProt P11309)
[34] = biological target: Phosphatidylinositol 4,5-bisphosphate 3-kinase catalytic subunit beta isoform (Homo sapiens) (UniProt P42338)
[35] = biological target: Eukaryotic translation initiation factor 2-alpha kinase 1 (Homo sapiens) (UniProt Q9BQI3)
[36] = biological target: Myosin light chain kinase family member 4 (Homo sapiens) (UniProt Q86YV6)
[37] = biological target: Ephrin type-A receptor 8 (Homo sapiens) (UniProt P29322)
[38] = biological target: Tyrosine-protein kinase JAK1 (Homo sapiens) (UniProt P23458)
[39] = biological target: Activin receptor type-2B (Homo sapiens) (UniProt Q13705)
[40] = biological target: Serine/threonine-protein kinase mTOR (Homo sapiens) (UniProt P42345)
[41] = biological target: Dual specificity mitogen-activated protein kinase kinase 6 (Homo sapiens) (UniProt P52564)
[42] = biological target: Tyrosine-protein kinase receptor Tie-1 (Homo sapiens) (UniProt P35590)
[43] = biological target: Death-associated protein kinase 2 (Homo sapiens) (UniProt Q9UIK4)
[44] = biological target: cAMP-dependent protein kinase catalytic subunit PRKX (Homo sapiens) (UniProt P51817)
[45] = biological target: Serine/threonine-protein kinase 32A (Homo sapiens) (UniProt Q8WU08)

Sequence of Tyrosine-protein kinase receptor Tie-1 (Homo sapiens) (P35590 whole entry): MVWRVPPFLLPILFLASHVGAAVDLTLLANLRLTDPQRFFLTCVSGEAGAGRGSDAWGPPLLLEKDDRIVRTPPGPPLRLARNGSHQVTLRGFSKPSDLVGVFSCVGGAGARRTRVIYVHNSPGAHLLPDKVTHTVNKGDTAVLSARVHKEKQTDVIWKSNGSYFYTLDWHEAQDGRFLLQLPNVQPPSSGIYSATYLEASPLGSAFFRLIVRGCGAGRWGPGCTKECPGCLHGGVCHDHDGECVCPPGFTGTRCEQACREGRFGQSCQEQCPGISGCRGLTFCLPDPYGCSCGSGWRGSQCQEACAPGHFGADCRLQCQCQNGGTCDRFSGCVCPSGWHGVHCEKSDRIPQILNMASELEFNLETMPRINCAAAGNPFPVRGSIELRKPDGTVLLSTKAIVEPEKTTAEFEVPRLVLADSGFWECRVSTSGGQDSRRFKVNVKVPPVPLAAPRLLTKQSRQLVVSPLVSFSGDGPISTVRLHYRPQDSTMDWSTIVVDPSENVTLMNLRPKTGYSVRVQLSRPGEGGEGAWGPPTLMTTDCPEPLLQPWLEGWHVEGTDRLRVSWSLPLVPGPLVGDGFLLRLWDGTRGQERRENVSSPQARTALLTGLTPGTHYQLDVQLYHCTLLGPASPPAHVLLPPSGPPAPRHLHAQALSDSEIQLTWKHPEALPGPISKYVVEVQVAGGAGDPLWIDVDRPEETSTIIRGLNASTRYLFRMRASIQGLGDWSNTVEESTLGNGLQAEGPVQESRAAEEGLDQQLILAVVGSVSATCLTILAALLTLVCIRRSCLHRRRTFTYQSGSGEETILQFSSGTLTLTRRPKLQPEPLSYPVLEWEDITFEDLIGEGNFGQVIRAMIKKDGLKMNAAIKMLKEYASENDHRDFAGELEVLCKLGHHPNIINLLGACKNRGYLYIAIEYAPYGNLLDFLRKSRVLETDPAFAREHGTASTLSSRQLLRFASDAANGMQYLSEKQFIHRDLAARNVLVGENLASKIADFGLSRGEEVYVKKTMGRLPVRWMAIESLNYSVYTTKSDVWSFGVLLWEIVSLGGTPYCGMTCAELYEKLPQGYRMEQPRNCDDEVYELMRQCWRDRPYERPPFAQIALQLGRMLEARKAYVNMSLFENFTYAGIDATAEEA
Sequence of Fibroblast growth factor receptor 1 (Homo sapiens) (P11362 22-822 limits assumed): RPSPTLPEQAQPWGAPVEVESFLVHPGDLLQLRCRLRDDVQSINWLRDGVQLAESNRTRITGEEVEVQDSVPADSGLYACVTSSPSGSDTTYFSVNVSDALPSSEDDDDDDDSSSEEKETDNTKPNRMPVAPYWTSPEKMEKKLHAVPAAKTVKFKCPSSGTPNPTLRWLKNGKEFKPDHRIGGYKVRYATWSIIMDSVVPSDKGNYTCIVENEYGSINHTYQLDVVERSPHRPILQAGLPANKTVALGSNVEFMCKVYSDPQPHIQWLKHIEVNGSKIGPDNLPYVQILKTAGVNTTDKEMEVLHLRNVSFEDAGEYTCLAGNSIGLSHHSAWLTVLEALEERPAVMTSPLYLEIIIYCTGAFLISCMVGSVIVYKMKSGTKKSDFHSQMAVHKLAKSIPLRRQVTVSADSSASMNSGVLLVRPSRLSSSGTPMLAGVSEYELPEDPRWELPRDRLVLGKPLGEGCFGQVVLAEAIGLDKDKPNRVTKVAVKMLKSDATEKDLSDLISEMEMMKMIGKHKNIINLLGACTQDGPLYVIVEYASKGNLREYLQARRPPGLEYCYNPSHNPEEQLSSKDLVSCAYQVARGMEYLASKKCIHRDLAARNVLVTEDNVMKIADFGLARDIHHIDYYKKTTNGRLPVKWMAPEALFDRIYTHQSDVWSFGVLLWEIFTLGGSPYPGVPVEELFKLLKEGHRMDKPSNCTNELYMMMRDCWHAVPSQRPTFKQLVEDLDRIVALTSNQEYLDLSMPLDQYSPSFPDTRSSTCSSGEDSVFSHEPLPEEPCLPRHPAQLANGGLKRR
Sequence of Interleukin-1 receptor-associated kinase 4 (Homo sapiens) (Q9NWZ3 whole entry): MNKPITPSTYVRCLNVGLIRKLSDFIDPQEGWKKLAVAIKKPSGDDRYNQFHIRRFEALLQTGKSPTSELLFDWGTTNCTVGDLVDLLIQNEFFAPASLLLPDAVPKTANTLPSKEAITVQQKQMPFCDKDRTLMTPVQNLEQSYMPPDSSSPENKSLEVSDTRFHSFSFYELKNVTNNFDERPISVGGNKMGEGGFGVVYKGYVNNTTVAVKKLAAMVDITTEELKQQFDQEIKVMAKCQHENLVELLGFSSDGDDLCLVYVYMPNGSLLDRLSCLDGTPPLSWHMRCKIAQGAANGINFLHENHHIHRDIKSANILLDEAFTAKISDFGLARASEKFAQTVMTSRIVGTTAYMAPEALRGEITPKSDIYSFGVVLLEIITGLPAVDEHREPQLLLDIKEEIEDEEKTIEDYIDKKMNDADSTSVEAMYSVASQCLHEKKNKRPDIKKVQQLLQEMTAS
Sequence of Ephrin type-A receptor 8 (Homo sapiens) (P29322 whole entry): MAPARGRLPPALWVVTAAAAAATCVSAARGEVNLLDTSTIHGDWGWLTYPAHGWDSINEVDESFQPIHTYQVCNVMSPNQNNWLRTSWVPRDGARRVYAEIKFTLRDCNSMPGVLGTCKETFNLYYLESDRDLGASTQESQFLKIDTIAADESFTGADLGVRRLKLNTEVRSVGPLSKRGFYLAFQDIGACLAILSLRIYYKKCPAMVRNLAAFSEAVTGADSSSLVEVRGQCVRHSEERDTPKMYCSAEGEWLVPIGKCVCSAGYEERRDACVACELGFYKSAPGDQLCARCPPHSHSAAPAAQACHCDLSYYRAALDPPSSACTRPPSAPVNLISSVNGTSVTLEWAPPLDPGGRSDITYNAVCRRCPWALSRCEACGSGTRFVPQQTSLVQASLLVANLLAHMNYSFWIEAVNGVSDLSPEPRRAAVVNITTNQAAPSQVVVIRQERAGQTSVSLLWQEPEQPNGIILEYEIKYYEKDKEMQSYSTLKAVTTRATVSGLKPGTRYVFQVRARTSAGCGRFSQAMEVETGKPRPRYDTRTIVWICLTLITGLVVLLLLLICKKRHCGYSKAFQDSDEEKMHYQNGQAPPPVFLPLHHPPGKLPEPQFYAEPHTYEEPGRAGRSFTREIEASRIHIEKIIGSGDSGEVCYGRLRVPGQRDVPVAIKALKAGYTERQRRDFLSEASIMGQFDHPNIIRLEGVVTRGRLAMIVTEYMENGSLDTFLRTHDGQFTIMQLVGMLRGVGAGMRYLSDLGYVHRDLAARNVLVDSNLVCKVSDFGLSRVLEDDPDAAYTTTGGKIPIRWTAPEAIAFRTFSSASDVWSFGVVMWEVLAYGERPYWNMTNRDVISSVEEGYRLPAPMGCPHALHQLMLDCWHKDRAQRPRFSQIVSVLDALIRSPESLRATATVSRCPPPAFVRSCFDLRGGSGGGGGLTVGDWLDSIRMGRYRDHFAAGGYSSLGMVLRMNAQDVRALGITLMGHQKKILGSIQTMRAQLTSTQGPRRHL
Sequence of Ephrin type-A receptor 5 (Homo sapiens) (P54756 whole entry): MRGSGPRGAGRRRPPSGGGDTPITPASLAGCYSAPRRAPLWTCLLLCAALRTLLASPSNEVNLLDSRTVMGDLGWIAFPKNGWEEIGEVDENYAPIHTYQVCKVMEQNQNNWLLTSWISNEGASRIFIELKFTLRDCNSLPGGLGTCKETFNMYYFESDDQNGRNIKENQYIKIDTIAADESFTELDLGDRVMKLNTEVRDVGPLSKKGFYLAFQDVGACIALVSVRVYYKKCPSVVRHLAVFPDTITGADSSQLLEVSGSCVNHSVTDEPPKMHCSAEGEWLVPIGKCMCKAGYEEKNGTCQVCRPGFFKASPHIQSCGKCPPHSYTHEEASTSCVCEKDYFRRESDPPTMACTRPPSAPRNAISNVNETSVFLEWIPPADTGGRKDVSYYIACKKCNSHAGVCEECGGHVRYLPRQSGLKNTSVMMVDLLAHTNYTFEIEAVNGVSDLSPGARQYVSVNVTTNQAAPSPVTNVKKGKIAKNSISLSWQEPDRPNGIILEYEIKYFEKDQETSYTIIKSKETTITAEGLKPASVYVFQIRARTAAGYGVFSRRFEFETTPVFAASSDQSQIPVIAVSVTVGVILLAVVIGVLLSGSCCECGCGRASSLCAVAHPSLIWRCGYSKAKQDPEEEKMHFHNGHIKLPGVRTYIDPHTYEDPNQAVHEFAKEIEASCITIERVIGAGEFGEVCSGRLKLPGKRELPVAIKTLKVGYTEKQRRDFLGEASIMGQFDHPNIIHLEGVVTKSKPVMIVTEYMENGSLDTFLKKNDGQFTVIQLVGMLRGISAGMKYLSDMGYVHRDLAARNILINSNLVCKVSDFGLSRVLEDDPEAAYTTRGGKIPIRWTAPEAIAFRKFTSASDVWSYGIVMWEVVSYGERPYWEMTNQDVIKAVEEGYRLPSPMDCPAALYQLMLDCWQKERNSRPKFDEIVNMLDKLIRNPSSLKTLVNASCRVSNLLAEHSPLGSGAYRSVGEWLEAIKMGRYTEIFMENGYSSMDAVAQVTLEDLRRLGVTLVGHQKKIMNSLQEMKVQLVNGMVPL
Sequence of Serine/threonine-protein kinase PAK 2 (Homo sapiens) (Q13177 whole entry): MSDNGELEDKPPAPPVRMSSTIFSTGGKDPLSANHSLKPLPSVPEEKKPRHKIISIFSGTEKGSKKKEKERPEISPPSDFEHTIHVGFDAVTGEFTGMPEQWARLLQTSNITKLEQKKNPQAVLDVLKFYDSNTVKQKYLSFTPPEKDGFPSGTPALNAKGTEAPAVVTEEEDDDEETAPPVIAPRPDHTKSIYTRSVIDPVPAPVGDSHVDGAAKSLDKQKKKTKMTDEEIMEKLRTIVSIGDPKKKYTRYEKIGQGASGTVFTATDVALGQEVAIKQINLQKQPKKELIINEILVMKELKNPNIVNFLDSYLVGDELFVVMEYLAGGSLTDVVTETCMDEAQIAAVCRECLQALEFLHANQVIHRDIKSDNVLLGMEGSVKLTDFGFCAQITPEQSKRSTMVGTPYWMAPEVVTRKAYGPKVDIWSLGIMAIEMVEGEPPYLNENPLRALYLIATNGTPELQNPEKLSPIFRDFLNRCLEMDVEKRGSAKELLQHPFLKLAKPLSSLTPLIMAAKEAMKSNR

## CS(=O)(=O)N1CCCC(NC(=O)[C@H](CCC2CCCCC2)NC(=O)c2ccc(CNc3ncnc4c3nnn4-c3ccccc3)cc2)C1 (stereo not given in full) [SR-301]
[1]
  residual activity: 85%
[2]
  residual activity: 94%
[3]
  residual activity: 68%
[4]
  residual activity: 100%
[5]
  residual activity: 100%
[6]
  residual activity: 72%
[7]
  residual activity: 100%
[8]
  residual activity: 88%
[9]
  residual activity: 100%
[10]
  residual activity: 100%
[11]
  residual activity: 100%
[12]
  residual activity: 100%
[13]
  residual activity: 80%
[14]
  residual activity: 100%
[15]
  residual activity: 91%
[16]
  residual activity: 96%
[17]
  residual activity: 87%
[18]
  residual activity: 60%
[19]
  residual activity: 100%
[20]
  residual activity: 100%
[21]
  residual activity: 100%
[22]
  residual activity: 100%
[23]
  residual activity: 44%
[24]
  residual activity: 100%
[25]
  residual activity: 91%
[26]
  residual activity: 100%
[27]
  residual activity: 76%
[28]
  residual activity: 59%
[29]
  residual activity: 87%
[30]
  residual activity: 99%
[31]
  residual activity: 85%
[32]
  residual activity: 100%
[33]
  residual activity: 95%
[34]
  residual activity: 81%
[35]
  residual activity: 81%
[36]
  residual activity: 100%
[37]
  residual activity: 100%
[38]
  residual activity: 89%
[39]
  residual activity: 83%
[40]
  residual activity: 100%
[41]
  residual activity: 67%
[42]
  residual activity: 100%
[43]
  residual activity: 90%
[44]
  residual activity: 100%
[45]
  residual activity: 57%

## CS(=O)(=O)N1CCCC(NC(=O)[C@H](CCC2CCCCC2)NC(=O)c2ccc(CNC(=O)c3cnc4ccccn34)cc2)C1 (stereo not given in full) [SR-302]
[1]
  residual activity: 96%
[2]
  residual activity: 100%
[3]
  residual activity: 44%
[4]
  residual activity: 100%
[5]
  residual activity: 0%
[6]
  residual activity: 100%
[7]
  residual activity: 98%
[8]
  residual activity: 93%
[9]
  residual activity: 100%
[10]
  residual activity: 100%
[11]
  residual activity: 100%
[12]
  residual activity: 66%
[13]
  residual activity: 100%
[14]
  residual activity: 100%
[15]
  residual activity: 100%
[16]
  residual activity: 100%
[17]
  residual activity: 100%
[18]
  residual activity: 74%
[19]
  residual activity: 93%
[20]
  residual activity: 100%
[21]
  residual activity: 84%
[22]
  residual activity: 100%
[23]
  residual activity: 100%
[24]
  residual activity: 100%
[25]
  residual activity: 87%
[26]
  residual activity: 98%
[27]
  residual activity: 81%
[28]
  residual activity: 30%
[29]
  residual activity: 68%
[30]
  residual activity: 35%
[31]
  residual activity: 100%
[32]
  residual activity: 100%
[33]
  residual activity: 89%
[34]
  residual activity: 96%
[35]
  residual activity: 91%
[36]
  residual activity: 63%
[37]
  residual activity: 89%
[38]
  residual activity: 100%
[39]
  residual activity: 100%
[40]
  residual activity: 100%
[41]
  residual activity: 72%
[42]
  residual activity: 100%
[43]
  residual activity: 94%
[44]
  residual activity: 65%
[45]
  residual activity: 81%
